This data set in a line: Discoloration (degradation) of sucralose during encapsulation. The format is physicochemical. As to conditions: with polyvinyl acetate, 2% polyvinylpyrollidone, 1% magnesium stearate; tablets pressed at 25° C., heated to 80° C. As for the experimental part:
As one example of a hydrophilic coating, sucralose was mixed with powdered polyvinyl acetate and 5% fat and extruded at 110° C. […] In an alternative encapsulation, sucralose was mixed with powdered polyvinyl acetate, 2% polyvinylpyrollidone and 1% magnesium stearate and pressed into tablets at 25° C. The tablets were then heated to 80° C., which softened the polymer and fused the polyvinylacetate with the sucralose. […] Thereafter, the tablets were cooled, ground and sized and analyzed. […] As another example, a polymer/sweetener matrix was prepared as described above in this paragraph. A solution of gum arabic was made and coated on the polymer/sweetener matrix particles using the method described in U.S. Pat. No. 3,196,827, the relevant portions of which are incorporated herein by reference. Coating levels were 20, 30, 40, and 50% for different samples. Chewing gums prepared with the coated polymer/sweetener matrix particles were chewed by a panel with bolus collection at 5, 10, 15, 20 minutes. Residual sucralose was analyzed in each chewed bolus.

With `OC[C@H]1O[C@H](O[C@]2(CCl)O[C@H](CCl)[C@@H](O)[C@@H]2O)[C@H](O)[C@@H](O)[C@H]1Cl` [sucralose], the “discoloration of the sucralose” value is “No discoloration”.
